Reference: US20230158057A1, “COMPOSITIONS AND METHODS FOR THE TREATMENT OF PAIN” (Duke University, priority 2020, published 2023)

Key:
naïve mice = experiment: Conditioned place preference (CPP) assay in naïve mice; conditions: i.t., morphine 2 nmol, DMXAA or ADU-S100 35 nmol
Protocol: All mice underwent 3 d of preconditioning habituation in a temperature- and humidity-controlled room under low-light conditions between 08:00-16:00 in a two compartment CPP chamber (Med Associates Inc.). The two compartments differed by both visual and tactile cues. On the 4th day, animal behavior was video-recorded using a webcam connected to a laptop computer, and animal movement was automatically tracked for 15 minutes using the ANY-Maze software (Stoelting). […] On the conditioning day(s) (day 5 for single trial; day 5-7 for repeated trials), two pairing sessions were performed, with vehicle pairing in the AM session and drug treatment (e.g., vehicle or drug) in the PM session, separated by 4 h. In the AM session, mice always received vehicle (10 μl saline, delivered via i.t. injection under isoflurane anesthesia) and were immediately placed in their preferred CPP chamber for 2 h. […] 24 h after the completion of the pairing experiments, mice were placed in the CPP test box with access to both chambers and behavior was recorded for 15 minutes and analyzed using the ANY-Maze software for chamber preference. CPP score was calculated as the inverse of the time spent in the preferred chamber according to: [post-preference (sec)—pre-preference (sec)]. Vehicle served as a negative control for these experiments, while morphine (three trials/naïve mice) or clonidine (single trial/ongoing pain) served as positive controls.

[1] = system: female C57BL/6 mice with intrafemoral E0771 breast carcinoma; experiment: E0771 breast cancer-induced bone cancer pain model; assay type: in vivo, mouse; conditions: for bone destruction scored from X-ray images: E0771-bearing femora; for body weight / mechanical allodynia, cold allodynia and spontaneous pain: E0771 model
Protocol: Bone cancer pain model. The murine cell lines LLC1, LL/2-Luc2 or E0771 were lightly digested using 0.05% trypsin, followed by centrifugation to remove poorly digested cell clusters. Cells were then resuspended in PBS at a concentration of 1×10^8 cells/ml. The inoculation was performed as previously described (Wang, K. et al. “PD-1 blockade inhibits osteoclast formation and murine bone cancer pain.” The Journal of clinical investigation, (2020); Wang, Z. et al. “Anti-PD-1 treatment impairs opioid antinociception in rodents and nonhuman primates.” Sci Transl Med 12 (2020)). Briefly, mice were anesthetized with 4% isoflurane and the left leg was shaved and the skin disinfected with 10% povidone-iodine and 75% ethanol. A superficial incision (0.5-1 cm) was made near the knee joint, exposing the patellar ligament. A new 25-gauge needle was inserted at the site of the intercondylar notch of the left femur into the femoral cavity, which was then replaced with a 10 μL microinjection syringe containing a 2 μL suspension of tumor cells (2×10^5) followed by 2 μL absorbable gelatin sponge solution to seal the injection site. The syringe contents were slowly injected into the femoral cavity over a 2-minute interval. To prevent further leakage of tumor cells outside of the bone cavity, the outer injection site was sealed with silicone adhesive (Kwik-Sil, World Precision Instruments, US). Animals with surgery related movement dysfunction or with outside bone tumor injection were excluded from the study.
Behavior tests. All the behavioral tests were conducted in a blinded manner and performed during between the hours of 9:00-16:00. Animals were habituated in a light and humidity controlled testing environment for at least 2 days prior to baseline testing. For Von Frey testing, mice were confined to individual 5×5 cm boxes placed on an elevated wire grid. A blinded experimenter stimulated their hindpaws using a series of von Frey filaments with logarithmically increasing stiffness (0.02-2.56 g, Stoelting). Each filament was applied perpendicularly to the central plantar surface. The 50% paw withdrawal threshold was determined using Dixon's up-down method. In addition, we also measured paw withdrawal frequency to repeated stimulation (10 times, with ˜1-2 minutes between each stimulation) using a subthreshold 0.16 g von Frey filament, which is a more sensitive method to detect mechanical allodynia. To measure cold allodynia, mice were similarly isolated to individual boxes on an elevated mesh floor, and a drop (˜20-30 μl) of acetone was applied to the plantar hindpaw. […] To measure locomotor function, we performed open field testing in which mice were placed in the center of a 45×45 cm chamber and locomotor activity was recorded by an overhead webcam connected to a laptop computer, and animals' movements were automatically tracked for 30 minutes using ANY-Maze. The total distance traveled and mean speed during the 30-minute period were analyzed.
In vivo X-ray radiography. Osteolytic bone destruction was continuously evaluated by radiography using the MultiFocus by Faxitron system (Faxitron Bioptics LLC, Tucson, Ariz.). Radiographs of tumor-bearing femora were rated for bone destruction on a 0-5 score scale based on previous study: 0 for normal bone at baseline without tumor inoculation; 1 for one to three radiolucent lesions indicative of bone destruction compared to baseline; 2 for increased number of lesions (three to six lesions) and loss of medullary bone; 3 for loss of medullary bone and erosion of cortical bone; 4 for full-thickness unicortical bone loss; 5 for full-thickness bicortical bone loss and displaced skeletal fracture. All radiographic image quantifications were completed by an experimenter who was blinded to the experimental conditions.
STING agonist treatment protects against breast cancer induced bone pain and bone destruction. […]

IFN-α [2] = experiment: IFN-α ELISA in serum and bone marrow lysate after i.p. STING agonist, LLC model; assay type: in vivo, mouse; conditions: for increase of serum levels of IFN-α: 4 h after a single i.p. injection 20 mg/kg on d3, vs vehicle; for IFN-α in bone marrow (BM) lysate: 4 h after i.p., d3
Protocol: (§1) ELISA. Mouse high-sensitivity IFN-α ELISA kit (42115-1) and IFN-β ELISA kit (42410-1) were purchased from PBL Assay Science. Mouse CTX-I ELISA kit (AC-06F1) and mouse PINP ELISA kit (AC-33F1) were purchased from Immunodiagnostic Systems. ELISA was performed using culture medium, serum, and bone marrow lysates. Serum was obtained from whole blood that was collected from a submandibular vein via facial vein puncture, coagulated for 30 minutes at room temperature, followed by centrifugation (2,000 ×g for 10 min, 4° C.) and collection of the supernatant (serum). Bone marrow was homogenized in a lysis buffer containing protease inhibitors at 4° C. for 30 minutes. ELISA was conducted in accordance with the manufacturer's instructions. A standard curve was performed for each experiment.

IFN-β [3] = experiment: IFN-β ELISA in serum and bone marrow lysate after i.p. STING agonist, LLC model; assay type: in vivo, mouse; conditions: for serum IFN-β levels: 4 h after i.p. 20 mg/kg; for IFN-β in bone marrow (BM) lysate: 4 h after i.p., d3
Protocol: as §1

IFN-α [4] = experiment: IFN-α ELISA on BMDM culture medium; assay type: cell-based, mouse; conditions: 24 h after incubation
Protocol: as §1
(§2) In vitro induction of osteoclastogenesis and TRAP staining. For in vitro drug treatment, the RAW 264.7 cells were incubated with 35 ng/ml RANKL for six days. Isolated bone marrow cells were cultured overnight in α-MEM media containing 10% fetal bovine serum and 1% antibiotic-antimycotic solution. The suspended cells were collected and incubated with 20 ng/ml MCSF for 3 days to obtain bone marrow-derived macrophage (BMDM). The attached cells were further activated by 35 ng/ml RANKL and 20 ng/ml MCSF. Drug treatment was performed in tandem with RANKL. Culture medium and co-cultured reagents were changed every 3 days. […]

IFN-β [5] = experiment: IFN-β ELISA on BMDM culture medium; assay type: cell-based, mouse; conditions: 24 h after incubation; IFN-β induction much greater
Protocol: as §1, §2

Structure (SMILES) | conditioned place preference, repeated pairing (naïve mice) | bone destruction scored from X-ray images [1] | body weight [1] | mechanical allodynia, cold allodynia and spontaneous pain [1] | increase of serum levels of IFN-α (IFN-α [2]) | IFN-α in bone marrow (BM) lysate (IFN-α [2]) | serum IFN-β levels (IFN-β [3]) | IFN-β in bone marrow (BM) lysate (IFN-β [3]) | IFN-α levels in the culture medium (IFN-α [4]) | IFN-β levels in the culture medium (IFN-β [5])
Nc1ncnc2c1ncn2[C@@H]1O[C@@H]2COP(=O)([S-])O[C@@H]3[C@H](O)[C@@H](COP([O-])(=S)O[C@H]2[C@H]1O)O[C@H]3n1cnc2c(N)ncnc21.[Na+].[Na+] (stereo partly drawn) [ADU-S100, (2′-5′)-[P(R)]-5′-O-[(R)-hydroxymercaptophosphinyl]-P-thioadenylyl-adenosine cyclic dinucleotide] | neither DMXAA nor ADU-S100 could induce place preference | could also attenuate bone destruction | had no effect on body weight | could markedly reduce mechanical allodynia, cold allodynia and spontaneous pain | approximately 1000 fold | sharply increased | dramatically upregulated | sharply increased | drastic increase in IFN-α and IFN-β levels | drastic increase in IFN-α and IFN-β levels
Cc1ccc2c(=O)c3cccc(CC(=O)O)c3oc2c1C [DMXAA, 2-(5,6-dimethyl-9-oxo-9H-xanthen-4-yl)acetic acid] | neither DMXAA nor ADU-S100 could induce place preference | could also attenuate bone destruction | had no effect on body weight | could markedly reduce mechanical allodynia, cold allodynia and spontaneous pain | approximately 1000 fold | sharply increased | dramatically upregulated | sharply increased | drastic increase in IFN-α and IFN-β levels | drastic increase in IFN-α and IFN-β levels
